This experiment deals with T1, hNaV1.7 (Homo sapiens, UniProt Q15858).
T1 construct: expressed in transfected cells; host or cells: HEK293
Put plainly: QPatch NaV1.7 assay. The class given is cell-based. Particulars: HEK293-hNaV1.7 cells, QPatch16x. How it is done: The compounds of the invention were tested in a QPatch NaV1.7 assay.
HEK293-hNaV1.7 cells were grown in DMEM-F12+10% FBS culture media at 37° C. At a confluency of 50-70% cells were dissociated from culture flasks & triturated to ensure unicellular cell suspension; cell density was measured & adjusted to 2-3×10^6 cells/ml. Recordings were obtained using QPatch16x. The external solution was (in mM): NaCl, 128; KCl, 5; MgCl2, 2; CaCl2, 2; Glucose, 30; HEPES, 15; pH 7.3, 305-315 mOsm. Following seal formation and whole-cell access using internal solution (containing in mM: CsF, 135; EGTA/CsOH, 1/5; HEPES 10; NaCl, 10; pH 7.3, 310-320mOsM), voltage pulse protocols were applied. Initially a steady state inactivation voltage protocol was used to determine the half-maximal voltage for steady state inactivation (V1/2 SSI). Two holding voltages were used to determine test drug inhibition: −90 mV, where most of the channels are in a closed state; and V1/2 SSI, where half of the channels are inactivated. Currents were elicited every 10 seconds by stepping to a membrane potential of 0 mV for 20 ms. Four-point cumulative concentration responses were derived by determining the peak current amplitude at each concentration of test drug over 120 second application. Curves were fitted with the Hill equation yielding pIC50 values at −90 mV and V1/2 SSI holding potentials.

[1] abbreviates: holding voltage V1/2 SSI, where half of the channels are inactivated, read-out: QP Nav1.7 SSI vhalf pIC50 (converted).
[2] abbreviates: holding voltage −90 mV, where most of the channels are in a closed state, read-out: QP Nav1.7 - 90 mV pIC50 (converted).

We go through 26 molecules from patent US9309254B2, “Pyrimidinyl-diazospiro compounds” (CONVERGENCE PHARMACEUTICALS LIMITED, priority 2012, dated 2016).

The structures appear in SMILES notation. Where a name gives a salt, the structure may show the parent alone. Read-outs that look alike come from different tables or passages of the source.

T1 sequence (Q15858 whole entry): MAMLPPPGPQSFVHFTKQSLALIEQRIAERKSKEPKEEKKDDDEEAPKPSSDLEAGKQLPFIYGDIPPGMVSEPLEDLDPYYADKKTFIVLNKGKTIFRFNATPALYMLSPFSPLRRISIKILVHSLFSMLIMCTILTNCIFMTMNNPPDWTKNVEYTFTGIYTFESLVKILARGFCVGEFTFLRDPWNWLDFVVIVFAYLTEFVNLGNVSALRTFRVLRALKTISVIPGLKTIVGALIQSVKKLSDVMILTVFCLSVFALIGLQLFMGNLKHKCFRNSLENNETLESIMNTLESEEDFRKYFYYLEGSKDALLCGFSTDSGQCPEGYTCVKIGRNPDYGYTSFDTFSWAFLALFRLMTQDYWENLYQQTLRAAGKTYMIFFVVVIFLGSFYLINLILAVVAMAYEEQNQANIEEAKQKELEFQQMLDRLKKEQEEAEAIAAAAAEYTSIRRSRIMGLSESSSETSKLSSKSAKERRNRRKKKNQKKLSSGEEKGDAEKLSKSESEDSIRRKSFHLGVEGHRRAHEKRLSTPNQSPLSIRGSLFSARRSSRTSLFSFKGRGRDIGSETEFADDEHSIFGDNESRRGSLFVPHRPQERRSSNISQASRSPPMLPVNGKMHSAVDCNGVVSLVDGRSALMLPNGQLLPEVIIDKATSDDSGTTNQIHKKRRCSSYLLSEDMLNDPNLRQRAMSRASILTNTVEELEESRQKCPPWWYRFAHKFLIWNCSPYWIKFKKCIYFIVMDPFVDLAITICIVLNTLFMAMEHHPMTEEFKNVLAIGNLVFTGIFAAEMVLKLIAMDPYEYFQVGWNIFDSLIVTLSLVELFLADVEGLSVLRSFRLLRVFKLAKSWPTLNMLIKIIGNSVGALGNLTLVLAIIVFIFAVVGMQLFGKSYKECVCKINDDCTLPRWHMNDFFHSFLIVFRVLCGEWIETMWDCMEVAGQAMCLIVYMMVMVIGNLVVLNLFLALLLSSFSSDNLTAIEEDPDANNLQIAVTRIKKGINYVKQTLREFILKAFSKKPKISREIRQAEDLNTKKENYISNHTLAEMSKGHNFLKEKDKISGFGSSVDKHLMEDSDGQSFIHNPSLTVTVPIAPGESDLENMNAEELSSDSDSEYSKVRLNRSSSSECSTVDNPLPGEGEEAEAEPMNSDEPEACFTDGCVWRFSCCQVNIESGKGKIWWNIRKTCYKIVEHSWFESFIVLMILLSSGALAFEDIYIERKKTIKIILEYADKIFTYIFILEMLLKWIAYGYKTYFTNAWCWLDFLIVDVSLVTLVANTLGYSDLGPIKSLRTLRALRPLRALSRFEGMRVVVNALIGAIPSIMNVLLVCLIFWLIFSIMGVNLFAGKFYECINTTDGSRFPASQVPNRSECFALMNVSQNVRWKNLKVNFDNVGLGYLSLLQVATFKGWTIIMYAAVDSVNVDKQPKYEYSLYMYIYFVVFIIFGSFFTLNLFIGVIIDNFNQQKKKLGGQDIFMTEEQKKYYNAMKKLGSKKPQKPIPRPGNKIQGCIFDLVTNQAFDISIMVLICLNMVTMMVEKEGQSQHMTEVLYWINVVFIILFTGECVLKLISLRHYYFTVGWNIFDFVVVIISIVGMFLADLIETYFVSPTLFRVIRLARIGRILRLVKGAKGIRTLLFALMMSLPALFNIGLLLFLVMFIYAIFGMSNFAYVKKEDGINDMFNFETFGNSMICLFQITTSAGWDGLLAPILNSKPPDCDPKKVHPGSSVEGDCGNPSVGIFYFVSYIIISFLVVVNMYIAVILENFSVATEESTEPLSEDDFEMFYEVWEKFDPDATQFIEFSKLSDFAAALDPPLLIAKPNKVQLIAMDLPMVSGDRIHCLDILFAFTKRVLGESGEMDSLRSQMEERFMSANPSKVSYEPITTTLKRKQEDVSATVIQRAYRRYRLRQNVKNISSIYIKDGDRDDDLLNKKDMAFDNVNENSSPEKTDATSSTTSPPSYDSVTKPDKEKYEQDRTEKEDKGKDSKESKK

Turning to `Cc1cc(-c2ccc(C(F)(F)F)cc2)nc([C@@H]2CC[C@@]3(CCN(C)C3=O)N2)n1` (single isomer, unassigned) [Example 22, hydrochloride], the IC50 by setting is: under setting [1], 63.1 µM; under setting [2], 7940 µM.
For `CN1CC[C@@]2(CC[C@H](c3nccc(-c4ccc(C(F)(F)F)cc4)n3)N2)C1=O` [Example 1, (2R,5S)-7-Methyl-2-[4-[4-(trifluoromethyl)phenyl]pyrimidin-2-yl]-1,7-diazaspiro[4.4]nonan-6-one hydrochloride] the same measures were 10 µM and 126 µM.
For `CN1CC[C@@]2(CC[C@@H](c3nccc(-c4ccc(C(F)(F)F)cc4)n3)N2)C1=O` [Example 2, (2S,5S)-7-Methyl-2-[4-[4-(trifluoromethyl)phenyl]pyrimidin-2-yl]-1,7-diazaspiro[4.4]nonan-6-one hydrochloride] the same measures were 63.1 µM and 398 µM.
For `CN1CC[C@]2(CC[C@@H](c3nccc(-c4ccc(C(F)(F)F)cc4)n3)N2)C1=O` [Example 3, (2S,5R)-7-Methyl-2-[4-[4-(trifluoromethyl)phenyl]pyrimidin-2-yl]-1,7-diazaspiro[4.4]nonan-6-one hydrochloride] the same measures were 31.6 µM and 158 µM.
Turning to `CN1CC[C@]2(CC[C@H](c3nccc(-c4ccc(C(F)(F)F)cc4)n3)N2)C1=O` [Example 4, (2R,5R)-7-Methyl-2-[4-[4-(trifluoromethyl)-phenyl]-pyrimidin-2-yl]-1,7-diazaspiro[4.4]nonan-6-one hydrochloride], the IC50 under setting [1] is 39.8 µM and the IC50 under setting [2] was 251 µM.
For `Cc1cc(-c2ccc(C(F)(F)F)cc2)nc([C@@H]2CC[C@]3(CCN(C)C3=O)N2)n1` [Example 5, (2S,5R)-7-Methyl-2-[4-methyl-6-[4-(trifluoromethyl)phenyl]pyrimidin-2-yl]-1,7-diazaspiro[4.4]nonan-6-one hydrochloride] the same measures were 100 µM and 79.4 µM.
For `Cc1cc(-c2ccc(C(F)(F)F)cc2)nc([C@H]2CC[C@]3(CCN(C)C3=O)N2)n1` [Example 6, (2R,5R)-7-Methyl-2-[4-methyl-6-[4-(trifluoromethyl)phenyl]pyrimidin-2-yl]-1,7-diazaspiro[4.4]nonan-6-one hydrochloride] the same measures were 79.4 µM and 316 µM.
In the case of `Cc1cc(-c2ccc(C(F)(F)F)cc2)nc([C@H]2CC[C@@]3(CCN(C)C3=O)N2)n1.Cl` [Example 7, (2R,5S)-7-Methyl-2-[4-methyl-6-[4-(trifluoromethyl)-phenyl]pyrimidin-2-yl]-1,7-diazaspiro[4.4]nonan-6-one hydrochloride], where the note is “holding voltage V1/2 SSI, where half of the channels are inactivated”, the “QP Nav1.7 SSI vhalf pIC50” value amounted to 5.7. In addition, the IC50 under setting [2] is 126 µM.
Regarding `CCOc1ccc(F)c(-c2cc(C)nc([C@@H]3CC[C@]4(CCN(C)C4=O)N3)n2)c1` [Example 8, (2S,5R)-2-[4-(5-Ethoxy-2-fluoro-phenyl)-6-methyl-pyrimidin-2-yl]-7-methyl-1,7-diazaspiro[4.4]nonan-6-one hydrochloride], the IC50 was 2.51 µM under setting [1] and 39.8 µM under setting [2].
For `CCOc1ccc(F)c(-c2cc(C)nc([C@H]3CC[C@]4(CCN(C)C4=O)N3)n2)c1` [Example 9, (2R,5R)-2-[4-(5-Ethoxy-2-fluoro-phenyl)-6-methyl-pyrimidin-2-yl]-7-methyl-1,7-diazaspiro[4.4]nonan-6-one hydrochloride] the same measures were 1.58 µM and 12.6 µM.
For the molecule `CCOc1ccc(F)c(-c2cc(C)nc([C@H]3CC[C@@]4(CCN(C)C4=O)N3)n2)c1` [Example 10, (2R,5S)-2-[4-(5-Ethoxy-2-fluoro-phenyl)-6-methyl-pyrimidin-2-yl]-7-methyl-1,7-diazaspiro[4.4]nonan-6-one hydrochloride], the IC50 under setting [1] is 1.58 µM and the IC50 under setting [2] is 20 µM.
For the molecule `CCOc1ccc(F)c(-c2cc(C)nc([C@@H]3CC[C@@]4(CCN(C)C4=O)N3)n2)c1` [Example 11, (2S,5S)-2-[4-(5-Ethoxy-2-fluoro-phenyl)-6-methyl-pyrimidin-2-yl]-7-methyl-1,7-diazaspiro[4.4]nonan-6-one hydrochloride], the IC50 by setting is: under setting [1], 3.98 µM; under setting [2], 79.4 µM.
As for `CCOc1ccc(F)c(-c2cc(C)nc([C@H]3CC[C@]4(CCCNC4=O)N3)n2)c1` [Example 12, hydrochloride], the IC50 is 2 µM under setting [1] and 20 µM under setting [2].
For `CCOc1ccc(F)c(-c2cc(C)nc([C@@H]3CC[C@]4(CCCNC4=O)N3)n2)c1` [Example 13, hydrochloride] the same measures were 1.58 µM and 7.94 µM.
For `CCOc1ccc(F)c(-c2ccnc([C@H]3CC[C@]4(CCN(C)C4=O)N3)n2)c1` [Example 14, (2R,5R)-2-[4-(5-Ethoxy-2-fluoro-phenyl)pyrimidin-2-yl]-7-methyl-1,7-diazaspiro[4.4]nonan-6-one hydrochloride] the same measures were 1.26 µM and 20 µM.
For `CCOc1ccc(F)c(-c2ccnc([C@@H]3CC[C@]4(CCN(C)C4=O)N3)n2)c1` [Example 15, (2S,5R)-2-[4-(5-Ethoxy-2-fluoro-phenyl)pyrimidin-2-yl]-7-methyl-1,7-diazaspiro[4.4]nonan-6-one hydrochloride] the same measures were 12.6 µM and 126 µM.
As for `CCOc1ccc(F)c(-c2ccnc([C@@H]3CC[C@@]4(CCN(C)C4=O)N3)n2)c1` [Example 16, (2S,5S)-2-[4-(5-Ethoxy-2-fluoro-phenyl)pyrimidin-2-yl]-7-methyl-1,7-diazaspiro[4.4]nonan-6-one hydrochloride], the IC50 reads like this: under setting [1], 12.6 µM; under setting [2], 126 µM.
With `CCOc1ccc(F)c(-c2ccnc([C@H]3CC[C@@]4(CCN(C)C4=O)N3)n2)c1` [Example 17, (2R,5S)-2-[4-(5-Ethoxy-2-fluoro-phenyl)pyrimidin-2-yl]-7-methyl-1,7-diazaspiro[4.4]nonan-6-one hydrochloride], the IC50 is 10 µM under setting [1] and 63.1 µM under setting [2].
For `CN1CC[C@@]2(CC[C@H](c3nccc(-c4cccc(OC(F)(F)F)c4)n3)N2)C1=O` [Example 18, (2R,5S)-7-Methyl-2-[4-[3-(trifluoromethoxy)phenyl]pyrimidin-2-yl]-1,7-diazaspiro[4.4]nonan-6-one hydrochloride] the same measures were 12.6 µM and 126 µM.
For `CN1CC[C@@]2(CC[C@@H](c3nccc(-c4cccc(OC(F)(F)F)c4)n3)N2)C1=O` [Example 19, (2S,5S)-7-Methyl-2-[4-[3-(trifluoromethoxy)phenyl]pyrimidin-2-yl]-1,7-diazaspiro[4.4]nonan-6-one hydrochloride] the same measures were 20 µM and 200 µM.
Take `CN1CC[C@]2(CC[C@@H](c3nccc(-c4cccc(OC(F)(F)F)c4)n3)N2)C1=O` [Example 20, (2S,5R)-7-Methyl-2-[4-[3-(trifluoromethoxy)phenyl]pyrimidin-2-yl]-1,7-diazaspiro[4.4]nonan-6-one hydrochloride]: the IC50 under setting [1] is 25.1 µM and the IC50 under setting [2] is 200 µM.
Consider `CN1CC[C@]2(CC[C@H](c3nccc(-c4cccc(OC(F)(F)F)c4)n3)N2)C1=O` [Example 21, (2R,5R)-7-Methyl-2-[4-[3-(trifluoromethoxy)phenyl]pyrimidin-2-yl]-1,7-diazaspiro[4.4]nonan-6-one hydrochloride], for which the IC50 runs as follows: under setting [1], 15.8 µM; under setting [2], 200 µM.
As to `CC(C)Oc1ccc(-c2ccnc([C@H]3CC[C@]4(CCN(C)C4=O)N3)n2)cc1` [Example 23, (2R,5R)-2-[4-(4-Isopropoxyphenyl)pyrimidin-2-yl]-7-methyl-1,7-diazaspiro[4.4]nonan-6-one hydrochloride], the IC50 reads like this: under setting [1], 63.1 µM; under setting [2], 1580 µM.
For `CC(C)Oc1ccc(-c2ccnc([C@@H]3CC[C@]4(CCN(C)C4=O)N3)n2)cc1` [Example 24, (2S,5R)-2-[4-(4-Isopropoxyphenyl)pyrimidin-2-yl]-7-methyl-1,7-diazaspiro[4.4]nonan-6-one hydrochloride] the same measures were 20 µM and 158 µM.
For `CC(C)Oc1ccc(-c2ccnc([C@H]3CC[C@@]4(CCN(C)C4=O)N3)n2)cc1` [Example 25, (2R,5S)-2-[4-(4-Isopropoxyphenyl)pyrimidin-2-yl]-7-methyl-1,7-diazaspiro[4.4]nonan-6-one hydrochloride] the same measures were 7.94 µM and 50.1 µM.
For `CC(C)Oc1ccc(-c2ccnc([C@@H]3CC[C@@]4(CCN(C)C4=O)N3)n2)cc1` [Example 26, (2S,5S)-2-[4-(4-Isopropoxyphenyl)pyrimidin-2-yl]-7-methyl-1,7-diazaspiro[4.4]nonan-6-one hydrochloride] the same measures were 50.1 µM and 631 µM.
